Values after ≈ are worked out from the molar mass of the structure shown. Like-named read-outs stand apart in the source and are kept apart here.
Legend:
S. aureus ATCC 29213 = test: MIC determination, S. aureus ATCC 29213; assay type: cell-based, Staphylococcus aureus; conditions: for MIC: Staphylococcus aureus
[1] = tested on: S. epidermidis ATCC 12228; test: MIC determination, S. epidermidis ATCC 12228; assay type: cell-based, Staphylococcus epidermidis; conditions: for MIC: Staphylococcus epidermidis
E. faecalis ATCC 29212 = test: MIC determination, E. faecalis ATCC 29212; assay type: cell-based, Enterococcus faecalis; conditions: for MIC: Enterococcus faecalis
H. influenzae ATCC 49766 = test: MIC determination, H. influenzae ATCC 49766; assay type: cell-based, Haemophilus influenzae; conditions: Table 2; for MIC: Haemophilus influenzae, ATCC49766
E. faecium CT-26 = test: MIC determination, E. faecium CT-26; assay type: cell-based, Enterococcus faecium; conditions: for MIC: Enterococcus faecium
S. pneumoniae ATCC 6301 = test: MIC determination, S. pneumoniae ATCC 6301; assay type: cell-based, Streptococcus pneumoniae; conditions: for MIC S. pneumonia ATCC 6301: Table 2; for MIC: Streptococcus pneumoniae; for MIC S. pneumoniae ATCC 6301: Table 1
[2] = tested on: M. catarrhalis ATCC 25238; test: MIC determination, M. catarrhalis ATCC 25238; assay type: cell-based; conditions: for MIC M. catarrhalis ATCC 25238: Table 1
[3] = ATCC29213, Table 1, read-out: MIC S. aureus ATCC 29213
[4] = ATCC29213, Table 2, read-out: MIC S. aureus ATCC 29213
[5] = ATCC12228, Table 1, read-out: MIC S. epidermidis ATCC 12228
[6] = ATCC12228, Table 2, read-out: MIC S. epidermidis ATCC 12228
[7] = ATCC29212, Table 1, read-out: MIC E. faecalis ATCC 29212
[8] = ATCC29212, Table 2, read-out: MIC E. faecalis ATCC 29212
[9] = CT26, Table 2, read-out: MIC E. faecium CT-26
[10] = ATCC6301, Table 2, read-out: MIC S. pneumonia ATCC 6301

MIC (S. aureus ATCC 29213; [4])	MIC [1, 6]	MIC (E. faecalis ATCC 29212; [8])	MIC (H. influenzae ATCC 49766)	Compound	MIC S. aureus ATCC 29213 (S. aureus ATCC 29213; Table 2)	MIC S. epidermidis ATCC 12228 ([1]; Table 2)	MIC E. faecalis ATCC 29212 (E. faecalis ATCC 29212; Table 2)	MIC E. faecium CT-26 (E. faecium CT-26; Table 2)	MIC H. influenzae ATCC 49766 (H. influenzae ATCC 49766)	other results
0.06 µg/mL (≈ 0.156 µM)	0.06 µg/mL (≈ 0.156 µM)	2 µg/mL (≈ 5.22 µM)	0.06 µg/mL (≈ 0.156 µM)	C[C@@H](O)[C@H]1C(=O)N2C(C(=O)O)=C(S[C@@H]3CN[C@H](C(=O)N(C)C)C3)[C@H](C)[C@H]12 [Meropenem, reference compound]						MIC (S. aureus ATCC 29213; [3]): 0.06 µg/mL (≈ 0.156 µM); MIC [1, 5]: 0.06 µg/mL (≈ 0.156 µM); MIC (E. faecalis ATCC 29212; [7]): 2 µg/mL (≈ 5.22 µM)
0.125 µg/mL (≈ 0.748 µM)	4 µg/mL (≈ 23.9 µM)	8 µg/mL (≈ 47.9 µM)	8 µg/mL (≈ 47.9 µM)	O=C(O)c1cccnc1C(=O)O [Compound 110, 3-carboxypicolinic acid]						MIC (E. faecium CT-26; [9]): 8 µg/mL (≈ 47.9 µM)
0.125 µg/mL (≈ 0.682 µM)	4 µg/mL (≈ 21.8 µM)	16 µg/mL (≈ 87.4 µM)	32 µg/mL (≈ 175 µM)	O=C(O)c1ncccc1OCCO [Compound 107]						MIC (E. faecium CT-26; [9]): 8 µg/mL (≈ 43.7 µM)
				Cc1cc(Cl)ccc1B(OC(=O)c1ncccc1O)c1ccc(Cl)cc1C [Compound 118, bis(2-methyl-4-chlorophenyl)borinic acid 3-hydroxypicolinate ester]	1 micrograms per ml	0.25 micrograms per ml	1 micrograms per ml	1 micrograms per ml	16 micrograms per ml	MIC S. pneumonia ATCC 6301 (S. pneumoniae ATCC 6301): 0.12 micrograms per ml
				O=C(O)c1ncccc1O [Compound 112, 3-hydroxypicolinic acid]	4 micrograms per ml	2 micrograms per ml	4 micrograms per ml	8 micrograms per ml	64 micrograms per ml	
				O=C(O)c1ncccc1O [Compound 114, 3-hydroxypicolinic acid]	0.125 micrograms per ml	8 micrograms per ml	64 micrograms per ml	64 micrograms per ml	16 micrograms per ml	
0.25 µg/mL (≈ 1.62 µM)	4 µg/mL (≈ 26 µM)	32 µg/mL (≈ 208 µM)	8 µg/mL (≈ 51.9 µM)	Nc1ccc(O)c(C(=O)O)n1 [Compound 122]						MIC (S. pneumoniae ATCC 6301; [10]): 16 µg/mL (≈ 104 µM); MIC (E. faecium CT-26; [9]): 32 µg/mL (≈ 208 µM)
0.125 µg/mL (≈ 1.15 µM)	4 µg/mL (≈ 36.7 µM)	32 µg/mL (≈ 293 µM)	4 µg/mL (≈ 36.7 µM)	OCc1ccccn1 [Compound 105, 2-hydroxymethylpyridine]						MIC (S. pneumoniae ATCC 6301; [10]): 4 µg/mL (≈ 36.7 µM); MIC (E. faecium CT-26; [9]): 32 µg/mL (≈ 293 µM)
				O=C(O)c1ncccc1O [Compound 117, 3-hydroxypicolinic acid]	2 micrograms per ml	1 micrograms per ml	4 micrograms per ml	4 micrograms per ml	16 micrograms per ml	MIC S. pneumonia ATCC 6301 (S. pneumoniae ATCC 6301): 0.5 micrograms per ml
0.25 µg/mL (≈ 0.991 µM)	4 µg/mL (≈ 15.9 µM)	4 µg/mL (≈ 15.9 µM)	64 µg/mL (≈ 254 µM)	O=C(O)c1ncccc1OCCN1CCOCC1 [Compound 108]						MIC (E. faecium CT-26; [9]): 2 µg/mL (≈ 7.93 µM)
				O=C(O)c1ncccc1O [Compound 116, 3-hydroxypicolinic acid]	2 micrograms per ml	1 micrograms per ml	4 micrograms per ml	4 micrograms per ml	64 micrograms per ml	MIC S. pneumonia ATCC 6301 (S. pneumoniae ATCC 6301): 0.25 micrograms per ml
				CC(=O)Oc1ccc[n+]2c1C(=O)O[B-]2(c1ccc(C)c(Cl)c1)c1ccc(C)c(Cl)c1 [Compound 119]	2 micrograms per ml	1 micrograms per ml	2 micrograms per ml	2 micrograms per ml	64 micrograms per ml	
				Cc1ccc([B-]2(c3ccc(C)c(Cl)c3)OC(=O)c3c(OCCCC(=O)O)ccc[n+]32)cc1Cl [Compound 109]	1 micrograms per ml	4 micrograms per ml	32 micrograms per ml	16 micrograms per ml	16 micrograms per ml	MIC S. pneumonia ATCC 6301 (S. pneumoniae ATCC 6301): 4 micrograms per ml
				O=C(O)c1ncccc1O [Compound 113, 3-hydroxypicolinic acid]	0.5 micrograms per ml	1 micrograms per ml	2 micrograms per ml	64 micrograms per ml	64 micrograms per ml	
				O=C(O)c1ncccc1O [Compound 115, 3-hydroxypicolinic acid]	2 micrograms per ml	2 micrograms per ml	8 micrograms per ml	16 micrograms per ml	64 micrograms per ml	MIC S. pneumonia ATCC 6301 (S. pneumoniae ATCC 6301): 1 micrograms per ml
				Cc1ccc(B(OC(=O)c2ncccc2O)c2ccc(C)c(Cl)c2)cc1Cl [Compound 111, Bis(3-Chloro-4-methylphenyl)borinic acid 3-hydroxypicolinate ester]	2 micrograms per ml	1 micrograms per ml	2 micrograms per ml	2 micrograms per ml	64 micrograms per ml	
0.5 µg/mL (≈ 3.65 µM)	4 µg/mL (≈ 29.2 µM)	64 µg/mL (≈ 467 µM)	64 µg/mL (≈ 467 µM)	O=C(O)Cc1ccccn1 [Compound 106, 2-pyridylacetic acid]						MIC (E. faecium CT-26; [9]): 64 µg/mL (≈ 467 µM)
				Clc1cccc(B(OCCc2c[nH]cn2)c2cccc(Cl)c2)c1 [Compound 121, Bis(3-Chlorophenyl)borinic acid 4-(hydroxyethyl)imidazole ester]	0.125 micrograms per ml	4 micrograms per ml	32 micrograms per ml	32 micrograms per ml	4 micrograms per ml	MIC S. pneumonia ATCC 6301 (S. pneumoniae ATCC 6301): 8 micrograms per ml
				Oc1ccc(F)c2cccnc12 [Compound 58]						MIC S. aureus ATCC 29213 (S. aureus ATCC 29213; Table 1): 2 micrograms per ml; MIC S. epidermidis ATCC 12228 ([1]; Table 1): 2 micrograms per ml; MIC S. pneumoniae ATCC 6301 (S. pneumoniae ATCC 6301): 2 micrograms per ml; MIC E. faecalis ATCC 29212 (E. faecalis ATCC 29212; Table 1): 8 micrograms per ml; MIC E. faecium CT-26 (E. faecium CT-26; Table 1): 4 micrograms per ml; MIC M. catarrhalis ATCC 25238 [2]: 0.5 micrograms per ml
				Oc1cccc2cccnc12 [Compound 73, 8-hydroxyquinoline]						MIC S. aureus ATCC 29213 (S. aureus ATCC 29213; Table 1): 2 micrograms per ml; MIC S. epidermidis ATCC 12228 ([1]; Table 1): 1 micrograms per ml; MIC S. pneumoniae ATCC 6301 (S. pneumoniae ATCC 6301): 2 micrograms per ml; MIC E. faecalis ATCC 29212 (E. faecalis ATCC 29212; Table 1): 64 micrograms per ml; MIC E. faecium CT-26 (E. faecium CT-26; Table 1): 8 micrograms per ml; MIC M. catarrhalis ATCC 25238 [2]: 0.25 micrograms per ml
				Nc1ccc2cccc(O)c2n1 [Compound 17]						MIC (S. aureus ATCC 29213; ATCC29213, read-out: MIC S. aureus ATCC 29213): 0.25 µg/mL (≈ 1.56 µM); MIC ([1]; ATCC12228, read-out: MIC S. epidermidis ATCC 12228): 2 µg/mL (≈ 12.5 µM); MIC (S. pneumoniae ATCC 6301; ATCC6301, read-out: MIC S. pneumoniae ATCC 6301): 2 µg/mL (≈ 12.5 µM); MIC (E. faecalis ATCC 29212; ATCC29212, read-out: MIC E. faecalis ATCC 29212): 8 µg/mL (≈ 49.9 µM); MIC (E. faecium CT-26; CT26, read-out: MIC E. faecium CT-26): 8 µg/mL (≈ 49.9 µM); MIC ([2]; Moraxella catarrhalis, ATCC25238, read-out: MIC M. catarrhalis ATCC 25238): 2 µg/mL (≈ 12.5 µM)
0.5 µg/mL (≈ 0.681 µM)	0.5 µg/mL (≈ 0.681 µM)	2 µg/mL (≈ 2.73 µM)	4 µg/mL (≈ 5.45 µM)	CC[C@H]1OC(=O)[C@H](C)[C@@H](O[C@H]2C[C@@](C)(OC)[C@@H](O)[C@H](C)O2)[C@H](C)[C@@H](O[C@@H]2O[C@H](C)C[C@H](N(C)C)[C@H]2O)[C@](C)(O)C[C@@H](C)C(=O)[C@H](C)[C@@H](O)[C@]1(C)O [Erythromycin, reference compound]						MIC (S. aureus ATCC 29213; [3]): 0.5 µg/mL (≈ 0.681 µM); MIC [1, 5]: 0.5 µg/mL (≈ 0.681 µM); MIC (E. faecalis ATCC 29212; [7]): 2 µg/mL (≈ 2.73 µM)
				Oc1cccc2cccnc12 [Compound 97, 8-hydroxyquinoline]						MIC S. aureus ATCC 29213 (S. aureus ATCC 29213; Table 1): 2 micrograms per ml; MIC S. epidermidis ATCC 12228 ([1]; Table 1): 1 micrograms per ml; MIC S. pneumoniae ATCC 6301 (S. pneumoniae ATCC 6301): 1 micrograms per ml; MIC E. faecalis ATCC 29212 (E. faecalis ATCC 29212; Table 1): 8 micrograms per ml; MIC E. faecium CT-26 (E. faecium CT-26; Table 1): 2 micrograms per ml; MIC M. catarrhalis ATCC 25238 [2]: 1 micrograms per ml
				Oc1cccc2cccnc12 [Compound 90, 8-hydroxyquinoline]						MIC S. aureus ATCC 29213 (S. aureus ATCC 29213; Table 1): 2 micrograms per ml; MIC S. epidermidis ATCC 12228 ([1]; Table 1): 2 micrograms per ml; MIC S. pneumoniae ATCC 6301 (S. pneumoniae ATCC 6301): 1 micrograms per ml; MIC E. faecalis ATCC 29212 (E. faecalis ATCC 29212; Table 1): 8 micrograms per ml; MIC E. faecium CT-26 (E. faecium CT-26; Table 1): 2 micrograms per ml; MIC M. catarrhalis ATCC 25238 [2]: 2 micrograms per ml
				C#CB(Oc1cccc2cccnc12)c1ccccc1Cl [Compound 43, (2-Chlorophenyl)ethynylborinic acid 8-Hydroxyquinoline ester]						MIC S. aureus ATCC 29213 (S. aureus ATCC 29213; Table 1): 1 micrograms per ml; MIC S. epidermidis ATCC 12228 ([1]; Table 1): 1 micrograms per ml; MIC S. pneumoniae ATCC 6301 (S. pneumoniae ATCC 6301): 1 micrograms per ml; MIC E. faecalis ATCC 29212 (E. faecalis ATCC 29212; Table 1): 8 micrograms per ml; MIC E. faecium CT-26 (E. faecium CT-26; Table 1): 2 micrograms per ml; MIC M. catarrhalis ATCC 25238 [2]: 1 micrograms per ml
